One substance from US8633167B2, “Method for the protection of trees” (Syngenta Crop Protection LLC, priority 2006, dated 2014) can be followed below.

The test system of one test is Cerambycid larvae. Put plainly: Bolt study (Example 1): cerambycid larval feeding in loblolly pine bolts cut after trunk injection. The format is in vivo. As to conditions: for reduction of cerambycid feeding damage: May. The protocol:
(§1) Two 20-year-old, recently thinned loblolly pine plantations were selected on land owned by Temple-Inland Forest Products Corporation about 5 km south of Wells (Angelina County), Tex. Trees in one plantation were injected for use in a bolt study (Example 1). Trees in a 0.2 ha section of the second plantation were injected as part of a single-tree protection study (Example 2). A staging area also was set up in the second plantation where bolts from the first plantation were exposed to bark beetles and wood borers.
Seventy-five loblolly pine trees, Pinus taeda L., 15-20 cm diameter at breast height (DBH), were selected in March 2004. Each treatment was injected into four cardinal points about 0.3 m above the ground on each of 15 trees in April (16th-23rd) using the new Arborjet Tree IV™ microinfusion system (Arborjet, Inc. Woburn, Mass.). The treatments included: • 1) Emamectin benzoate (Denim®, 1.92% ai, Syngenta Crop Science)—Denim® was mixed 1:1 with methanol and applied at 18.6 ml solution per inch of tree diameter at breast height (DBH) (=0.2 g active per inch DBH). • 2) Check (untreated)
After 1 (May 24), 3 (July 19) and 5 (September) months post-injection, 5 trees of each treatment were felled and two 1.5 m long bolts were removed from the 3 m and 8 m heights of the bole. The bolts were transported to a nearby plantation that was recently thinned and contained fresh slash material. Each bolt was placed about 1 m apart on discarded, dry pine bolts to maximize surface area available for colonization as well as to discourage predation by ground and litter-inhabiting organisms. To facilitate timely bark beetle colonization, packets of bark beetle pheromones (racemic ipsdienol + lanerione combination, ipsenol or cis-verbenol; Phero Tech, Inc., Delta, BC, Canada) were attached separately to three 1 m stakes evenly spaced in the study area. Racemic ipsdienol and cis-verbenol were used with the second and third series of bolts deployed in July and September, respectively. The packets were removed after 2 weeks when signs of attacks (boring dust) were observed on most test bolts, signaling that naturally-produced pheromones were present.
Each series of bolts were retrieved about 3 weeks after deployment, after observing many cerambycid egg niches on the bark surface of most bolts. There was concern that if cerambycid larvae were allowed to develop too long, their feeding activity would obscure or obliterate the Ips galleries. Thus, each series of bolts were retrieved and stored temporarily in a TFS seedling cooler (˜45° F.) to slow cerambycid development until the bolts could be evaluated.
In the laboratory, two 10×50 cm strips (total=1000 cm^2) of bark were removed from each bolt. Several measurements were made relating to construction of nuptial chambers and egg galleries and development of brood: • 1) Number of unsuccessful attacks—penetration to phloem, but no egg galleries. • 2) Number of successful attacks—construction of nuptial chamber and at least one egg gallery extending from it. • 3) Number and lengths of egg galleries with brood galleries radiating from them. • 4) Number and lengths of egg galleries without brood galleries. • 5) Cerambycid activity, estimated by overlaying a 100 cm^2 grid over a portion of each bark strip and counting the number of squares overlapping area where cerambycid larvae had fed.
Treatment efficacy was determined by comparing Ips beetle attacks and egg gallery length and cerambycid feeding on treated and untreated bolts. The data were transformed by log10(x+1) to satisfy criteria for normality and homoscedasticity (Zar 1984) and analyzed by GLM and the Fishers Protected LSD test using the Statview statistical program.

In a further test the test system is cerambycids. Put plainly: Single-tree protection study (Example 2): cerambycid attacks and larval feeding on standing loblolly pine. The test is classed as in vivo. Conditions: for Cerambycid Feeding Area: bolts cut after tree mortality or at the end of the trial. On the procedure:
as §1
Loblolly pine, 15-20 cm DBH, were selected in the second plantation in March 2004. Each treatment (the same as those used in Example 1) was injected into four cardinal points about 0.3 m above the ground on each of 6 trees in April (16th-23rd) using the Arborjet Tree IV™ system. After 5 weeks post-injection (May 28), frills were cut with a hatchet into the sapwood between the injection points near the base of the tree. A cellulose sponge was inserted into each cut and loaded with 10 ml of a 4:1 mix of sodium N-methyldithiocarbamate (MS) (Woodfume®; Osmose, Inc., Buffalo, N.Y.) plus dimethyl sulfoxide (DMSO) (Aldrich Chemical) (Roton 1987, Strom et al. 2004). This method reduces resin to near zero in 1-2 weeks. The intent was to stress the tree and make it susceptible to attack by bark beetles without killing it. […]
Three weeks after pheromone deployment (June 28), each tree was evaluated by marking a 30 cm section of bole at a height of 3 m. All visible Ips attacks and cerambycid egg niches were counted within the marked area. The number of trees with fading crowns also was recorded. Thereafter, the trees were evaluated weekly for crown fading. When mortality did occur, the trees were felled and two bolts taken and evaluated for attack success and gallery length as described in Example 1. […] Treatment efficacy was determined by comparing tree survival, beetle attacks and egg gallery length on treated and untreated bolts. As before, data were transformed and analyzed by GLM and the Fisher's Protected LSD test using the Statview statistical program.

As to “4″-deoxy-4″-N-methylamino avermectin B1a/B1b [Emamectin]”, the “Percent Phloem Area Consumed by Larvae” value is listed as 2.2 a % in the test with Cerambycid larvae (1 Month Post Injection (May), bolt height 3 m); 0.0 a % in the test with Cerambycid larvae (1 Month Post Injection (May), bolt height 8 m); 0.0 a % with Cerambycid larvae (3 Months Post Injection (July), bolt height 3 m); 0.0 a % in the test on Cerambycid larvae (3 Months Post Injection (July), bolt height 8 m); 0.0 a % with Cerambycid larvae (5 Months Post Injection (September), bolt height 3 m); 0.0 a % in the test with Cerambycid larvae (5 Months Post Injection (September), bolt height 8 m). In addition, in the test on Cerambycid larvae (July and September series, bolts from 3 m), the “cerambycid larval feeding or development” value is given as “no larval feeding or development”. For the same substance, the entries for the “reduction of cerambycid feeding damage” value in the test with Cerambycid larvae (bolts from 3 m) and with Cerambycid larvae (bolts from 8 m) were 93% and 100%, respectively. The “Cerambycid Feeding Area” value in the test on cerambycids (bolt height 3 m) and with cerambycids (bolt height 8 m) was 0.0 a each time. Further, the “Mean # of Attacks/0.3 Bole Section at 3 m after 24 days, Cerambycid” value with cerambycids (standing loblolly pine, after 24 days) was 0.8 a.
